Results: patent US10098900B2, “Pharmaceutical compositions and their use for treatment of cancer and autoimmune diseases” (ZHEJIANG DTRM BIOPHARMA CO. LTD., priority 2015, dated 2018)
Marks after values point to notes of the source that are not given here.

Experiments:
TMD-8 cell line = assay: Inhibition assay of tumor cell activity (cell viability), TMD-8; type: cell-based, human; conditions: individual compound; for Inh % on TMD-8 cell line (AVG): 48 h
Protocol: (§1) Inhibition Assay of Tumor Cell Activity:
(§2) Tumor cells (TMD-8, DoHH2 and WSU-DLCL2) were transferred and attached to 96-well plates. After one night, blank buffer and selected concentrations (0.01 nM-100 μM) of the test compound solution were added. After 48 hours incubation, CellTiter-Go was added to lyse the cells. Recording luminescent signal and calculate the percent inhibition of cell viability

[1] = system: resistant WSU-DLCL2 cell line; assay: Inhibition assay of tumor cell activity (cell viability), WSU-DLCL2; type: cell-based; conditions: Homo sapiens, WSUDLCL2, individual compound, read-out: Inh % on resistant WSU-DLCL2 cell line (AVG)
Protocol: as §1, §2

DoHH-2 cell line = assay: Inhibition assay of tumor cell activity (cell viability), DoHH-2; type: cell-based; conditions: Homo sapiens, individual compound, read-out: Inh % on DoHH-2 cell line (AVG)
Protocol: as §1, §2

[2] = 28-day toxicity/toxicokinetic (TK) study in dogs; type: in vivo, dog
WSU-DLCL2 xenograft = assay: Inhibition of tumor growth in vivo, resistant WSU-DLCL2 SCID mouse model; conditions: for Antitumor effect (%): WSU-DLCL2, Oral, BID
Protocol: Inhibition Study of Tumor Growth In Vivo:
SCID mice or nude mice (weighing about 18 g at the beginning of the experiment) were randomly divided into groups by the software in order to achieve close average weights between groups and control the bias within the allowable range. The mice were injected BTK cell lines (TMD-8, WSU-DLCL2 and DoHH-2) for tumor formation. […] Body weights and tumor volume were recorded.
Xenograft Tumor Models Inoculated with TMD-8, or DoHH2, or WSU-DLCL2 Tumor Cell Lines:
TMD-8 is a sensitive human diffuse large B-cell lymphoma cell line, and DoHH2 is a more difficult to treat human follicular lymphoma cell line, while WSU-DLCL2 is a multi-drug resistant (MDR) human non-Hodgkin's lymphoma cell line.
The TMD-8, DoHH2, WSU-DLCL2 tumor cells were maintained in vitro as a suspension culture in RPMI-1640 medium supplemented with 10% heat inactivated fetal calf serum at 37° C. in an atmosphere of 5% CO2 in air. The tumor cells were routinely subcultured twice weekly. The cells growing in an exponential growth phase were harvested and counted for tumor inoculation. Each mouse was inoculated subcutaneously at the right flank with the tumor cells (10×10^6) in 0.2 ml of PBS with Matrigel (1:1) for tumor development. The treatments were started after the average tumor size reached approximately 100-200 mm^3. Each group consisted of 6-10 tumor-bearing mice. […] Animal body weight and tumor volume were measured every 2- or 3-days throughout the treatment.

[3] = system: adjuvant-induced arthritis; assay: Adjuvant-induced arthritis (AA/AIA) model in female Lewis rats (paw volume, clinical score, histopathology); type: in vivo, rat; parameters: Pathological score (Mean ± SEM), Inflammatory cell infiltration / Pathological score (Mean ± SEM), Pannus growth / Pathological score (Mean ± SEM), Cartilage injury / Pathological score (Mean ± SEM), Bone resorption / Pathological score (Mean ± SEM), Total: scale not given here; conditions: for Paw volume (mL), Mean: 5 mg/kg BID
Excerpt: Adjuvant-Induced Arthritis AA Model: […] All rats except the normal group were immunized with complete Freund's adjuvant (CFA) subcutaneously at the left hind paw to induce arthritis at day 0. […] The treatments were given orally for 3 consecutive weeks. The body weight, paw volume and clinical score were monitored every other day after day 13 throughout the course of the study. At the terminal point, right hind paws were collected for histopathology analysis with H.E. staining.

[4] = system: collagen induced arthritis; assay: Collagen-induced arthritis (CIA) model in male DBA/1 mice (clinical score, histopathology); type: in vivo, mouse; parameters: Clinical Score (Mean) / Pathological score (Mean ± SEM), Inflammatory cell infiltration / Pathological score (Mean ± SEM), Pannus growth / Pathological score (Mean ± SEM), Cartilage injury / Pathological score (Mean ± SEM), Bone resorption / Pathological score (Mean ± SEM), Total: scale not given here
Protocol: Collagen-Induced Arthritis (CIA) Model: The combination of Compounds 3 and 12 was evaluated in collagen induced arthritis (CIA) mouse model in Male DBA/1 mice. The animals were divided into 8 groups, including a normal, a vehicle, […] treatment groups: […] On the same day, immunized mice were randomly divided into 7 groups: […] The treatments were given orally for 2 consecutive weeks. Body weight and clinical score were monitored through the study (recorded three times a week started after second immunization). At the end of the study, animals were euthanized and both hind paws were collected for histopathology analysis.

[5] = CIA study, Left hind paw, 3 alone, 1.5 mg/kg QD
[6] = CIA study, Right hind paw, 3 alone, 1.5 mg/kg QD

C=CC(=O)N1CC[C@@H](n2nc(-c3ccc(Oc4c(F)c(F)cc(F)c4F)cc3F)c3c(N)ncnc32)C1 [Compound 3, 1-((R)-3-(4-amino-3-(2-fluoro-4-(2,3,5,6-tetrafluorophenoxy)phenyl)-1H-pyrazolo[3,4-d]pyrimidin-1-yl)pyrrolidin-1-yl)prop-2-en-1-one]
inhibition at 0.01 µM (TMD-8 cell line; Homo sapiens, TMD8, 48 h, 0.01 uM (10 nM), read-out: Inh % on TMD-8 cell line (AVG)): 46.1%
inhibition at 0.1 µM (TMD-8 cell line; Homo sapiens, TMD8, 48 h, 0.1 uM (100 nM), read-out: Inh % on TMD-8 cell line (AVG)): 59.6%
inhibition at 1 µM (TMD-8 cell line; Homo sapiens, TMD8, 48 h, 1 uM (1,000 nM), read-out: Inh % on TMD-8 cell line (AVG)): 61.7%
inhibition at 10 µM (TMD-8 cell line; Homo sapiens, TMD8, 48 h, 10 uM, read-out: Inh % on TMD-8 cell line (AVG)): 74.9%
inhibition at 100 µM (TMD-8 cell line; Homo sapiens, TMD8, 48 h, 100 uM, read-out: Inh % on TMD-8 cell line (AVG)): 99.7%
Inh % on TMD-8 cell line (AVG) (TMD-8 cell line; 0.01 uM (10 nM)): 51.66%
Inh % on TMD-8 cell line (AVG) (TMD-8 cell line; 0.1 uM (100 nM)): 52.40%
Inh % on TMD-8 cell line (AVG) (TMD-8 cell line; 1 uM (1,000 nM)): 55.05%
inhibition at 0.01 µM ([1]; 0.01 uM): -10.1%
inhibition at 0.1 µM ([1]; 0.1 uM): -1.36%
inhibition at 1 µM ([1]; 1 uM): 41%
inhibition at 0.01 µM (DoHH-2 cell line; 0.01 uM): 15.6%
inhibition at 0.1 µM (DoHH-2 cell line; 0.1 uM): 34.8%
inhibition at 1 µM (DoHH-2 cell line; 1 uM): 49.9%
AUC compared with ibrutinib [2]: significantly higher
Cmax ([2]; 15 mg/kg/day, Day 1, Female): 685 ± 212 ng/mL
Antitumor effect (%) (WSU-DLCL2 xenograft; FIG. 8, 28 days, 10 mg/kg): 22%
Antitumor effect (%) (WSU-DLCL2 xenograft; FIG. 8, 28 days, 30 mg/kg): 30%
Antitumor effect (%) (WSU-DLCL2 xenograft; FIG. 8, 28 days, 45 mg/kg): 32%
Antitumor effect (%) (WSU-DLCL2 xenograft; FIG. 9, 18 days, 5 mg/kg): 4%
Antitumor effect (%) (WSU-DLCL2 xenograft; FIG. 9, 18 days, 10 mg/kg): 7%
Antitumor effect (%) (WSU-DLCL2 xenograft; FIG. 9, 18 days, 30 mg/kg): 23%
efficacy / tumor growth (WSU-DLCL2 xenograft; WSU-DLCL2 mice model, FIGS. 8 and 9, triple combination at total 21 mg/kg/day): in line with the efficacy of Ibrutinib
Paw volume (mL), Mean ([3]; Day 0): 1.04 mL
Paw volume (mL), Mean ([3]; Day 17): 1.87 ns mL
Paw volume (mL), Mean ([3]; Day 26): 2.29** mL
Paw volume (mL), Mean ([3]; Day 28): 2.12*** mL
Paw volume (mL), Mean ([3]; Day 31): 2.12*** mL
Paw volume (mL), Mean ([3]; Day 33): 2.09*** mL
effect on paw volume ([3]; AA rats model, FIG. 13): absent
Pathological score (Mean ± SEM), Bone resorption ([3]; AA study, 3 alone, 5 mg/kg): 3.0 ± 0.45
Pathological score (Mean ± SEM), Cartilage injury ([3]; AA study, 3 alone, 5 mg/kg): 2.8 ± 0.51
Pathological score (Mean ± SEM), Inflammatory cell infiltration ([3]; AA study, 3 alone, 5 mg/kg): 3.5 ± 0.34
Pathological score (Mean ± SEM), Pannus growth ([3]; AA study, 3 alone, 5 mg/kg): 3.2 ± 0.53
Pathological score (Mean ± SEM), Total ([3]; AA study, 3 alone, 5 mg/kg): 12.5 ± 1.78
effect on clinical score ([4]; CIA mice model, FIG. 15): absent
Pathological score (Mean ± SEM), Total ([4]; CIA study, 3 alone, 1.5 mg/kg QD): 3.90 ± 1.80
Pathological score (Mean ± SEM), Bone resorption [4, 5]: 0.60 ± 0.13
Pathological score (Mean ± SEM), Cartilage injury [4, 5]: 0.80 ± 0.47
Pathological score (Mean ± SEM), Inflammatory cell infiltration [4, 5]: 1.00 ± 0.47
Pathological score (Mean ± SEM), Pannus growth [4, 5]: 0.80 ± 0.47
Pathological score (Mean ± SEM), Bone resorption [4, 6]: 0.10 ± 0.10
Pathological score (Mean ± SEM), Cartilage injury [4, 6]: 0.20 ± 0.20
Pathological score (Mean ± SEM), Inflammatory cell infiltration [4, 6]: 0.20 ± 0.20
Pathological score (Mean ± SEM), Pannus growth [4, 6]: 0.20 ± 0.20
Clinical Score (Mean) ([4]; CIA study, day 21, 3 alone, 1.5 mg/kg QD): 0.00
Clinical Score (Mean) ([4]; CIA study, day 32, 3 alone, 1.5 mg/kg QD): 2.60
Clinical Score (Mean) ([4]; CIA study, day 39, 3 alone, 1.5 mg/kg QD): 4.20***
Clinical Score (Mean) ([4]; CIA study, day 42, 3 alone, 1.5 mg/kg QD): 4.00***
